Results published in ChEMBL document CHEMBL1151149, “Antineoplastic agents, 107. Isolation of acteoside and isoacteoside from Castilleja linariaefolia” (1990).
Values after ≈ are worked out from the molar mass of the structure shown.

Tested on: P388
Assay: Cytotoxicity against mouse P388 cells
Type: functional
Conditions: read-out: ED50 (the source's name)

| Structure (SMILES) | EC50 |
| --- | --- |
| C[C@@H]1O[C@@H](O[C@@H]2[C@@H](O)[C@H](OCCc3ccc(O)c(O)c3)O[C@H](CO)[C@H]2OC(=O)/C=C/c2ccc(O)c(O)c2)[C@H](O)[C@H](O)[C@H]1O [ACETOSIDE] | 2.6 µg/mL (≈ 4.16 µM) |
| C[C@@H]1O[C@@H](O[C@@H]2[C@@H](O)[C@H](OCCc3ccc(O)c(O)c3)O[C@H](COC(=O)/C=C/c3ccc(O)c(O)c3)[C@H]2O)[C@H](O)[C@H](O)[C@H]1O [ISOACTEOSIDE] | 10 µg/mL (≈ 16 µM) |
